Test results: patent publication US11021457B2, “Class of isoindolone-imide ring-1,3-dione-2-ene compounds, composition and use thereof” (WIGEN BIOMEDICINE TECHNOLOGY (SHANGHAI) CO., LTD., priority 2017, dated 2021)
pIC50: −log10 of the molar value. Read-outs that look alike come from different tables or passages of the source.

What was measured:
[1] = test system: SU-DHL6; experiment: Inhibition of tumor cell proliferation, CellTiter-Glo, SU-DHL6; type: cell-based; settings: compound concentration 50 μM, 72 hours; for cell survival rate (% of control) at 50 µM: Homo sapiens, SU-DHL-6, read-out: Inhibitory activity against proliferation (cell survival rate) SU-DHL6
Procedure, shortened: (§1)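 Cells seeded at 2000-10000 cells/well in complete medium at 37° C., 5% CO2; suspension lines dosed immediately, adherent lines after attachment. Viability by CellTiter-Glo luminescence at 72 h; survival % from blank-corrected RLU vs control. Scored at 50 μM: + (60-<90%), ++ (>30-60%), +++ (≤30%).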

[2] = test system: RPMI-8226; experiment: Inhibition of tumor cell proliferation, CellTiter-Glo, RPMI-8226; type: cell-based; settings: compound concentration 50 μM, 72 hours; for cell survival rate (% of control) at 50 µM: Homo sapiens, RPMI-8226, read-out: Inhibitory activity against proliferation (cell survival rate) RPMI-8226
Procedure, shortened: as §1

[3] = test system: K562; experiment: Inhibition of tumor cell proliferation, CellTiter-Glo, K562; type: cell-based; settings: compound concentration 50 μM, 72 hours; for cell survival rate (%) at 50 µM: Homo sapiens, K562, read-out: Inhibitory activity against proliferation (cell survival rate) K562
Procedure, shortened: as §1

[4] = test system: A549; experiment: Inhibition of tumor cell proliferation, CellTiter-Glo, A549; type: cell-based; settings: compound concentration 50 μM, 72 hours; for cell survival rate (% of control) at 50 µM: Homo sapiens, A549, read-out: Inhibitory activity against proliferation (cell survival rate) A549
Procedure, shortened: as §1

[5] = test system: MDA-MB-453; experiment: Inhibition of tumor cell proliferation, CellTiter-Glo, MDA-MB-453; type: cell-based; settings: compound concentration 50 μM, 72 hours; for cell survival rate (%) at 50 µM: Homo sapiens, MDA-MB-453, read-out: Inhibitory activity against proliferation (cell survival rate) MDA-MB-453
Procedure, shortened: as §1

[6] = test system: BxPC-3; experiment: Inhibition of tumor cell proliferation, CellTiter-Glo, BxPC-3; type: cell-based; settings: compound concentration 50 μM, 72 hours; for cell survival rate (%) at 50 µM: Homo sapiens, BXPC-3, read-out: Inhibitory activity against proliferation (cell survival rate) BxPC-3
Procedure, shortened: as §1

[7] = biological target: LC3B (Homo sapiens (Human), UniProt Q9GZQ8); experiment: Fluorescence polarization experiment targeting LC3B (GST-LC3B with FITC-labeled peptide)
[8] = GST-LC3B 180 nM, FITC-labeled peptide 18 nM, 25° C.

| SMILES | Inhibitory activity against proliferation (cell survival rate) SU-DHL6 [1] | Inhibitory activity against proliferation (cell survival rate) RPMI-8226 [2] | Inhibitory activity against proliferation (cell survival rate) K562 [3] | Inhibitory activity against proliferation (cell survival rate) A549 [4] | Inhibitory activity against proliferation (cell survival rate) MDA-MB-453 [5] | Inhibitory activity against proliferation (cell survival rate) BxPC-3 [6] | pIC50 [7, 8] | cell survival rate (% of control) at 50 µM [1] | cell survival rate (% of control) at 50 µM [2] | cell survival rate (%) at 50 µM [3] | cell survival rate (% of control) at 50 µM [4] | cell survival rate (%) at 50 µM [5] | cell survival rate (%) at 50 µM [6] | pIC50 [7] |
| --- | --- | --- | --- | --- | --- | --- | --- | --- | --- | --- | --- | --- | --- | --- |
| O=C1CCC(N2Cc3c(NC(=O)c4ccc(NC=C5C(=O)CC(c6ccccc6)CC5=O)cc4)cccc3C2=O)C(=O)N1 (stereo not shown) [Compound 50] | +++ (survival rate (%)≤30) | ++ (30<survival rate (%)≤60) | + (60≤survival rate (%)<90) | + (60≤survival rate (%)<90) | + (60≤survival rate (%)<90) | + (60≤survival rate (%)<90) | 4.00 to 4.82 |  |  |  |  |  |  |  |
| CC(C)[C@H](NC=C1C(=O)CC(c2ccccc2)CC1=O)C(=O)N[C@@H](CCCNC(N)=O)C(=O)Nc1cccc2c1CN(C1CCC(=O)NC1=O)C2=O (stereo partly shown) [Compound 59] | +++ (survival rate (%)≤30) | +++ (survival rate (%)≤30) | +++ (survival rate (%)≤30) | +++ (survival rate (%)≤30) | + (60≤survival rate (%)<90) | ++ (30<survival rate (%)≤60) | 3.00 to 4.00 |  |  |  |  |  |  |  |
| O=C1CCC(N2Cc3c(NC(=C4C(=O)CC(c5ccccc5)CC4=O)c4ccccc4)cccc3C2=O)C(=O)N1 (stereo not shown) [Compound 75] | +++ (survival rate (%)≤30) | +++ (survival rate (%)≤30) | +++ (survival rate (%)≤30) | +++ (survival rate (%)≤30) | +++ (survival rate (%)≤30) | + (60≤survival rate (%)<90) | 3.00 to 4.00 |  |  |  |  |  |  |  |
| CC(C)[C@H](NC(=O)CCC(=O)OCCN1CCN(CCNC=C2C(=O)CC(c3ccccc3)CC2=O)CC1)C(=O)N[C@@H](CCCNC(N)=O)C(=O)Nc1ccc(COC(=O)Nc2cccc3c2CN(C2CCC(=O)NC2=O)C3=O)cc1 (stereo partly shown) [Compound 89] | ++ (30<survival rate (%)≤60) | ++ (30<survival rate (%)≤60) | ++ (30<survival rate (%)≤60) | ++ (30<survival rate (%)≤60) | +++ (survival rate (%)≤30) | + (60≤survival rate (%)<90) | 4.00 to 4.82 |  |  |  |  |  |  |  |
| CC(C)[C@H](NC(=O)CN1CCN(CCNC=C2C(=O)CC(c3ccccc3)CC2=O)CC1)C(=O)N[C@@H](CCCNC(N)=O)C(=O)Nc1ccc(COC(=O)Nc2cccc3c2CN(C2CCC(=O)NC2=O)C3=O)cc1 (stereo partly shown) [Compound 90] | +++ (survival rate (%)≤30) | ++ (30<survival rate (%)≤60) | +++ (survival rate (%)≤30) | ++ (30<survival rate (%)≤60) | ++ (30<survival rate (%)≤60) | ++ (30<survival rate (%)≤60) | 4.00 to 4.82 |  |  |  |  |  |  |  |
| O=C1CC(c2ccccc2)CC(=O)C1=CNCCN1CCN(C(=O)N2C(=O)CCC(N3C(=O)c4ccccc4C3=O)C2=O)CC1 (stereo not shown) [Compound 101] | ++ (30<survival rate (%)≤60) | +++ (survival rate (%)≤30) | +++ (survival rate (%)≤30) | +++ (survival rate (%)≤30) | ++ (30<survival rate (%)≤60) | + (60≤survival rate (%)<90) | 4.00 to 4.82 |  |  |  |  |  |  |  |
| CCCNC(=O)C1CC(=O)C(=CNc2cccc3c2CN(C2CCC(=O)NC2=O)C3=O)C(=O)C1 (stereo not shown) [Compound 114] |  |  |  |  |  |  |  | 30 to 60% | 60 to 90% | 30 to 60% | 30 to 60% | 60 to 90% | 60 to 90% | 3.00 to 4.00 |
| CCC(=O)/C(=C/Nc1cccc2c1CN(C1CCC(=O)NC1=O)C2=O)C(=O)CCc1ccccc1 (stereo not shown) [Compound 128] | +++ (survival rate (%)≤30) | +++ (survival rate (%)≤30) | +++ (survival rate (%)≤30) | +++ (survival rate (%)≤30) | +++ (survival rate (%)≤30) | + (60≤survival rate (%)<90) | 3.00 to 4.00 |  |  |  |  |  |  |  |
| O=C1CCC(N2Cc3c(NC=C4C(=O)CCCC4=O)cccc3C2=O)C(=O)N1 (stereo not shown) [Compound 132] |  |  |  |  |  |  |  | ≤ 30% | ≤ 30% | 30 to 60% | 60 to 90% | 60 to 90% | 30 to 60% | 3.00 to 4.00 |
| O=C1CCC(N2Cc3c(NC=C4C(=O)CC(c5cc(C(F)(F)F)ccc5F)CC4=O)cccc3C2=O)C(=O)N1 (stereo not shown) [Compound 140] | +++ (survival rate (%)≤30) | +++ (survival rate (%)≤30) | +++ (survival rate (%)≤30) | +++ (survival rate (%)≤30) | ++ (30<survival rate (%)≤60) | ++ (30<survival rate (%)≤60) | > 5.52 |  |  |  |  |  |  |  |
| O=C1CCC(N2Cc3c(NC=C4C(=O)CC(c5c(C(F)(F)F)ccc(Cl)c5Cl)CC4=O)cccc3C2=O)C(=O)N1 (stereo not shown) [Compound 141] | +++ (survival rate (%)≤30) | ++ (30<survival rate (%)≤60) | ++ (30<survival rate (%)≤60) | +++ (survival rate (%)≤30) | +++ (survival rate (%)≤30) | + (60≤survival rate (%)<90) | > 5.52 |  |  |  |  |  |  |  |
| O=C1CCC(N2Cc3c(NC=C4C(=O)CC(c5c(C(F)(F)F)ccc(Cl)c5F)CC4=O)cccc3C2=O)C(=O)N1 (stereo not shown) [Compound 142] | +++ (survival rate (%)≤30) | +++ (survival rate (%)≤30) | +++ (survival rate (%)≤30) | + (60≤survival rate (%)<90) | +++ (survival rate (%)≤30) | + (60≤survival rate (%)<90) | > 5.52 |  |  |  |  |  |  |  |
| COc1cc(Br)c(C2CC(=O)C(=CNc3cccc4c3CN(C3CCC(=O)NC3=O)C4=O)C(=O)C2)cc1OC (stereo not shown) [Compound 143] | +++ (survival rate (%)≤30) | ++ (30<survival rate (%)≤60) | ++ (30<survival rate (%)≤60) | +++ (survival rate (%)≤30) | +++ (survival rate (%)≤30) | + (60≤survival rate (%)<90) | > 5.52 |  |  |  |  |  |  |  |
